System: Recombinant CHO cells expressing an IgG1
Test: Fed-batch process with SSC feed; relative quantification of trisulfide linked peptides in IgG by LC-MS peptide mapping
Format: cell-based
Details: for mean reduction of trisulfide, LC-HC linked peptides: SSC feed (15 mM in main feed) compared to control condition with cysteine in separate feed; for mean reduction of trisulfide, linkage between cysteine 259 and cysteine 319 in the heavy chain: SSC feed compared to control condition with cysteine in separate feed
Method: Recombinant CHO cells expressing an IgG1 were grown in fully chemically defined basal media (Cellvento® CHO 220) containing 1.5 mM cysteine. At days 3, 5, 7, 10, 14; feed(s) containing either cysteine or S-sulfocysteine were added.
For the control condition, the main feed included vitamins, trace elements and amino acid except cysteine because of the low stability of this amino acid. 150 mM of cysteine was dissolved in a separate feed at pH 11. The main feed was added at 3%, 6%, 6%, 6% and 6% (v/v) whereas cysteine was added at 0.3%, 0.6%, 0.6%, 0.6% and 0.6% on day 3, 5, 7, 10 and 14, respectively.
For the SSC condition, the main feed included the same vitamins, trace elements and amino acids and was further supplemented with 15 mM of S-sulfocysteine di-sodium salt. The main feed was added 3%, 6%, 6%, 6% and 6% (v/v) day 3, 5, 7, 10 and 14 respectively, resulting in the same amount of cysteine source when compared to the control condition. Glucose was monitored on a daily basis for both conditions and adjusted to 6 g/L using a 400 g/L solution.
The process was performed in 1.2 L bioreactors at 37° C., pH 7.0, 50% dissolved oxygen, agitation 140 rpm.
Samples were taken from the bioreactors for the trisulfide analysis on day 13 and day 18. After sampling, cell culture supernatant was centrifuged 5 min at 1500 rpm, the IgG concentration was quantified using an automatic turbidometric method (Cedex bioHT) and frozen for further processing.
IgG were purified from the frozen samples using protein A binding (Phytips method) and were eluted in 200 mM NAH2PO4; 140 mM NaCl and 96 mM Tris HCl and quantified again.
First, the free cysteines in the samples were alkylated by addition of N-ethylmaleiimide (10 mM solution in 0.1 M Na acetate buffer pH 5.0) for 30 min in the dark.
For digestion with Lys-C, 55 μL digestion buffer (8 M urea, 0.1 M Tris, pH 7) and 15 μL Lys-C enzyme (Promega, V1671) were added and the samples were incubated for 4 hours at 37° C. Subsequently, the samples were diluted to 1 M urea by addition of […] and were digested by addition of 12 μL trypsin over night at 37° C. The final antibody concentration was 50 mg/L. For the analysis of the disulfide and trisulfide bonds, the sample was treated with 10% formic acid (4.4 μL) to stop the digestion and analyzed by LC-MS.
The peptide mixture obtained was injected and separated using reversed phase HPLC (RSLC3000 nano LC, Thermo Scientific Dionex, Idstein, Germany). A nanoLC column (Acquity UPLC M-Class HSS T3, 1.8 μm, 75 μm×150 mm, Waters) with a cartridge (PM100, C18, 5 μm, 0.3×5 mm, Thermo Scientific Dionex, Idstein, Germany) was used for preconcentration and separation of the sample. Blank runs and column wash runs were performed within consecutive sample runs. […]

Compound: N[C@@H](CSS(=O)(=O)[O-])C(=O)[O-].[Na+].[Na+] [SSC, S-sulfocysteine di-sodium salt]
- mean reduction of trisulfide, LC-HC linked peptides (day 13 of fed-batch): 93.3%
- mean reduction of trisulfide, linkage between cysteine 259 and cysteine 319 in the heavy chain (day 13 of fed-batch): 46.7%
- mean reduction of trisulfide, LC-HC linked peptides (day 18 of fed-batch): 92.4%
- mean reduction of trisulfide, linkage between cysteine 259 and cysteine 319 in the heavy chain (day 18 of fed-batch): 25.9%
